Laboratory results from patent publication US20070276034A1, “Compounds, compositions and methods for the treatment of synucleinopathies” (priority 2002, published 2007).
Like-named read-outs stand apart in the source and are kept apart here.

What was measured:
Type in all cases: biochemical
IAPP fibrils [1] = molecular target: T1, IAPP fibrils (Homo sapiens, UniProt P10997); assay: Congo red binding assay with IAPP fibrils; settings: 3-day incubation
T1 construct: purchased Bachem Inc
T1 sequence (P10997 34-70 limits assumed): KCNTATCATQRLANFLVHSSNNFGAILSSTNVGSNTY
Procedure: In the Congo red binding assay the ability of a given test compound to alter amyloid (in this case, IAPP) binding to Congo red is quantified. In this assay, IAPP and test compounds were incubated for 3 days and then vacuum filtered through a 0.2 μm filter. The amount of IAPP retained in the filter was then quantitated following staining of the filter with Congo red. After appropriate washing of the filter, any lowering of the Congo red color on the filter in the presence of the test compound (compared to the Congo red staining of the amyloid protein in the absence of the test compound) was indicative of the test compound's ability to diminish/alter the amount of aggregated and congophilic IAPP.
In the study, the ability of IAPP fibrils to bind Congo red in the absence or presence of increasing amounts of the compounds or EDTA (at IAPP:test compound weight ratios of 1:1, 1:0.1, 1:0.01 or 1:0.001) was determined.

Aβ 1-42 fibrils = molecular target: T2, Aβ 1-42 fibrils (Homo sapiens, UniProt P05067); assay: Thioflavin T fluorometry - disruption of pre-formed Aβ 1-42 Alzheimer's fibrils; settings: 25 μM pre-fibrillized Aβ 1-42, 37° C., 3 days, read-out: % Inhibition Aβ (result ± S.D.)
T2 construct: purchased Bachem Inc
Description: In one study, Thioflavin T fluorometry was used to determine the effects of the compounds, and of EDTA (as a negative control). In this assay Thioflavin T binds specifically to fibrillar amyloid, and this binding produces a fluorescence enhancement at 485 nm that is directly proportional to the amount of amyloid fibrils formed. The higher the fluorescence, the greater the amount of amyloid fibrils formed (Naki et al., Lab. Invest. 65:104-110, 1991; Levine III, Protein Sci. 2:404-410, 1993; Amyloid: Int. J. Exp. Clin. Invest. 2:1-6, 1995).
(§1) In this study, 25 μM of pre-fibrillized Aβ 1-42 (Bachem Inc) was incubated at 37° C. for 3 days either alone, or in the presence of one of the compounds or EDTA (at Aβ:test compound weight ratios of 1:1, 1:0.1, 1:0.01 or 1:0.001). Following 3-days of co-incubation, 50 μl of each incubation mixture was transferred into a 96-well microtiter plate containing 150 μl of distilled water and 50 μl of a Thioflavin T solution (i.e. 500 mM Thioflavin T in 250 mM phosphate buffer, pH 6.8). The fluorescence was read at 485 nm (444 nm excitation wavelength) using an ELISA plate fluorometer after subtraction with buffer alone or compound alone, as blank.

IAPP fibrils [2] = molecular target: T1, IAPP fibrils; assay: Thioflavin T fluorometry - disruption of type 2 diabetes IAPP fibrils; settings: 25 μM pre-fibrillized IAPP, 37° C., 3 days, read-out: % Inhibition IAPP (result ± S.D.)
Procedure: (§2) In this assay Thioflavin T binds specifically to fibrillar amyloid, and this binding produces a fluorescence enhancement at 485 nm that is directly proportional to the amount of IAPP fibrils present. The higher the fluorescence, the greater the amount of IAPP fibrils present (Naki et al, Lab. Invest. 65:104-110, 1991; Levine III, Protein Sci. 2:404-410, 1993; Amyloid: Int. J. Exp. Clin. Invest. 2:1-6, 1995).
as §1, with “IAPP” for “Aβ 1-42”, “IAPP:test” for “Aβ:test”

NAC fibrils = molecular target: T3, NAC fibrils (Homo sapiens, UniProt P37840); assay: Thioflavin T fluorometry - disruption of Parkinson's disease NAC fibrils; settings: 3 days; for inhibition: 25 μM pre-fibrillized NAC, 37° C., read-out: % Inhibition NAC (result ± S.D.); for disruption/disassembly of pre-formed NAC fibrils (in words): all concentrations tested (ratios 1:1 to 1:0.001)
T3 construct: NAC is a 35-amino acid fragment of α-synuclein; purchased Bachem Inc
Procedure: as §2, with “assay,” for “assay”, “NAC fibrils,” for “fibrillar amyloid,”, “NAC” for “IAPP”
In this study, 25 μM of pre-fibrillized NAC (Bachem Inc) was incubated at 37° C. for 3 days either alone or in the presence of dihydroxy synthetic analog compounds #1, 3, 23, 26, 52, 63, 66, 67, or EDTA (at NAC:test compound weight ratios of 1:1, 1:0.1, 1:0.01 or 1:0.001). Following 3-days of co-incubation, 50 βl of each incubation mixture was transferred into a 96-well microtiter plate containing 150 μl of distilled water and 50 μl of a Thioflavin T solution (i.e. 500 mM Thioflavin T in 250 mM phosphate buffer, pH 6.8). The fluorescence was read at 485 nm (444 nm excitation wavelength) using an ELISA plate fluorometer after subtraction with buffer alone or compound alone, as blank.

monomeric Aβ 1-42 = molecular target: T4, monomeric Aβ 1-42 (Homo sapiens, UniProt P05067); assay: SDS-PAGE/Western blot of Aβ 1-42 after incubation with compounds; settings: 25 μM pre-fibrillized Aβ 1-42, 37° C., 3 days, 0.2 μm filtrate, antibody 6E10
T4 construct: purchased Bachem Inc
Procedure: In this latter study, triplicate samples of pre-fibrillized Aβ 1-42 (25 μM) was incubated at 37° C. for 3 days, alone or in the presence of the compounds or EDTA. Five micrograms of each sample was then filtered through a 0.2 μm filter. Protein recovered from the filtrate was then loaded, and ran on a 10-20% Tris-Tricine SDS-PAGE, blotted to nitrocellulose and detected using an Aβ-antibody (clone 6E10; Senetek).

[3] = IAPP:test compound wt/wt ratio 1:0.001
[4] = IAPP:test compound wt/wt ratio 1:0.01
[5] = IAPP:test compound wt/wt ratio 1:0.1
[6] = IAPP:test compound wt/wt ratio 1:1
[7] = Aβ:test compound wt/wt ratio 1:0.001
[8] = Aβ:test compound wt/wt ratio 1:0.01
[9] = Aβ:test compound wt/wt ratio 1:0.1
[10] = Aβ:test compound wt/wt ratio 1:1
[11] = NAC:test compound wt/wt ratio 1:0.001
[12] = NAC:test compound wt/wt ratio 1:0.01
[13] = NAC:test compound wt/wt ratio 1:0.1
[14] = NAC:test compound wt/wt ratio 1:1

T4 sequence (P05067 672-713): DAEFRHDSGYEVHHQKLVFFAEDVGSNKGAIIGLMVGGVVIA
T2 sequence (P05067 672-713): as above

Structure (SMILES)	% Inhibition IAPP (result ± S.D.), Congo red binding (IAPP fibrils [1]; [3]) [%]	% Inhibition IAPP (result ± S.D.), Congo red binding (IAPP fibrils [1]; [4]) [%]	% Inhibition IAPP (result ± S.D.), Congo red binding (IAPP fibrils [1]; [5]) [%]	% Inhibition IAPP (result ± S.D.), Congo red binding (IAPP fibrils [1]; [6]) [%]	inhibition (Aβ 1-42 fibrils; [7]) [%]	inhibition (Aβ 1-42 fibrils; [8]) [%]	inhibition (Aβ 1-42 fibrils; [9]) [%]	inhibition (Aβ 1-42 fibrils; [10]) [%]	inhibition (IAPP fibrils [2]; [3]) [%]	inhibition (IAPP fibrils [2]; [4]) [%]	inhibition (IAPP fibrils [2]; [5]) [%]	inhibition (IAPP fibrils [2]; [6]) [%]	inhibition (NAC fibrils; [11]) [%]	inhibition (NAC fibrils; [12]) [%]	inhibition (NAC fibrils; [13]) [%]	inhibition (NAC fibrils; [14]) [%]	disruption/disassembly of pre-formed NAC fibrils (in words) (NAC fibrils)	detection of Aβ 1-42 monomers (~4 kilodalton band) on Western blot (monomeric Aβ 1-42)
Cc1nc(-c2ccc(O)c(O)c2)cc(-c2ccc(O)c(O)c2)c1C#N [Compound 8, 4,6-bis(3,4-dihydroxyphenyl)-3-cyano-2-methylpyridine]	0.0 ± 6.46	7.2 ± 2.27	0.0 ± 2.94	0.0 ± 2.84	4.9 ± 2.27	24.7 ± 3.51	65.5 ± 0.17	70.8 ± 2.57	11.4 ± 12.8	29.6 ± 5.97	67.8 ± 1.74	72.8 ± 1.77	–	–	–	–	–	–
Oc1ccc(CN2CCN(Cc3ccc(O)c(O)c3)CC2)cc1O [Compound 9, 1,4-bis(3,4-dihydroxybenzyl)piperazine]	–	–	–	–	10.6 ± 0.93	2 ± 10.8	34.9 ± 1.69	95.1 ± 0.13	–	–	–	–	–	–	–	–	–	–
O=C(NCc1ccc(O)c(O)c1)c1ccc(O)c(O)c1 [Compound 52, 3,4-dihydroxybenzoic acid 3,4-dihydroxybenzylamide]	10.2 ± 0.52	11.0 ± 3.27	11.5 ± 1.21	31.3 ± 0.27	0	12.1 ± 0.78	53.6 ± 2.42	93.7 ± 0.41	16 ± 8.42	49.2 ± 4.47	86.9 ± 3.09	97.9 ± 0.19	13.8 ± 10.5	79.6 ± 6.43	89.2 ± 1.49	99.7 ± 1.93	dose-dependent disruption/disassembly	–
O=C(CCc1ccc(O)c(O)c1)Nc1ccc(O)c(O)c1 [Compound 57, 3-(3,4-dihydroxyphenyl)propionic acid 3,4-dihydroxyanilide]	4.5 ± 0.64	8.5 ± 3.19	8.9 ± 3.90	15.7 ± 3.77	17.7 ± 7.43	19 ± 6.33	60.2 ± 3.12	88.4 ± 2.73	1.9 ± 5.24	37.3 ± 0.78	73.2 ± 1.19	94.1 ± 0.46	–	–	–	–	–	–
O=C(CCc1ccc(O)c(O)c1)NCc1ccc(O)c(O)c1 [Compound 58, 3-(3,4-dihydroxyphenyl)propionic acid 3,4-dihydroxybenzylamide]	0.0 ± 1.93	4.6 ± 2.35	0.7 ± 6.21	24.5 ± 0.57	20.5 ± 6.27	33.2 ± 5.16	76 ± 2.57	94.8 ± 1.67	8.9 ± 6.87	48.8 ± 2.05	87.6 ± 1.16	98.1 ± 1.04	–	–	–	–	–	not detected
O=C(CCC(=O)Nc1ccc(O)c(O)c1)Nc1ccc(O)c(O)c1 [Compound 66, succinic acid bis(3,4-dihydroxyanilide)]	4.8 ± 1.86	5.7 ± 4.23	15.7 ± 2.53	41.4 ± 3.84	27.1 ± 3.51	42 ± 2.36	78.3 ± 4.17	100 ± 0.68	11.1 ± 5.28	47.6 ± 8.16	94 ± 2.88	98.5 ± 0.06	30.5 ± 9.55	43.4 ± 3.45	82.5 ± 5.37	98.9 ± 0.65	dose-dependent disruption/disassembly	not detected
Oc1ccc(CNCc2ccc(O)c(O)c2)cc1O [Compound 73, bis(3,4-dihydroxybenzyl)amine]	–	–	–	–	0	28.7 ± 10.3	70.9 ± 3.04	99.4 ± 0.42	–	–	–	–	–	–	–	–	–	–
Oc1ccc(CN(Cc2ccc(O)c(O)c2)Cc2ccc(O)c(O)c2)cc1O [Compound 75, tris(3,4-dihydroxybenzyl)amine]	2.9 ± 0.69	11.3 ± 2.24	7.4 ± 0.70	49.0 ± 1.17	17 ± 4.2	31.6 ± 4.74	84.4 ± 0.94	99 ± 0.63	6 ± 6.46	43.9 ± 5.34	90 ± 0.27	100 ± 0.35	–	–	–	–	–	not detected
